The values that follow come from PubChem BioAssay (NCI).

The structures appear in SMILES notation.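 Following 48 hours of exposure in 96-well plates, responses at five concentrations were used to interpolate endpoints linearly. GI50 = concentration required for 50% inhibition of growth. TGI marks complete inhibition of growth.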

What all share (test): NCI tumour cell line growth inhibition, 48 h
For test [1], the system named is SF-295 CNS.
Test [2] has as its system KM12 colon.
For test [3], the system named is A498 renal.
The subject of test [4] is IGROV1 ovarian.
Test [5] deals with NCI-H23 lung.
Test [6] has as its system SK-MEL-5 melanoma.
For test [7], the system named is RPMI-8226 leukemia.
Test [8] deals with OVCAR-3 ovarian.
For test [9], the system named is MALME-3M melanoma.
Test [10] concerns COLO 205 colon.

Turning to `OC1CCC(COC(c2ccccc2)(c2ccccc2)c2ccccc2)O1` (stereo not given), the TGI in [1] was 31.8 µM; in test [2], 34.3 µM; in test [3], 35.8 µM; in [4], 36.8 µM; in test [5] it was 35.4 µM; in test [6], 30.9 µM. Moreover, the TGI in [7] is 40.7 µM; in [8], 32.4 µM; in test [9], 42.3 µM; in test [10] it was 30.8 µM.

Turning to `N#C/C(=C\c1ccc([N+](=O)[O-])cc1)n1nnc2cc(F)c(F)cc21`, the GI50 in [1] is 2.08 µM; in [2] it was 2.02 µM; in test [3] it was 1.9 µM; in [4], 1.72 µM; in test [5] it was 1.87 µM; in test [6], 1.89 µM. The GI50 was 2.42 µM in test [7], 1.85 µM in test [8], 2.08 µM in test [9] and 1.89 µM in [10]. In addition, the TGI in test [1] came out at 5.29 µM; in test [2] it was 4.39 µM; in test [3] it was 3.71 µM; in [4] it was 4 µM; in [5], 4.08 µM; in test [6], 3.69 µM. The TGI in [7] turned out to be 6.67 µM; in [8], 3.58 µM; in [9] it was 5.3 µM; in test [10], 3.93 µM.
